Reference: ChEMBL document CHEMBL1201862, “PubChem BioAssay data set” (2004)
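Test compounds were applied to cells in 96-well plates for 48 hours at 5 doses. GI50: concentration for 50% inhibition of growth.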 The source made the active and inactive calls. Cut-off read from the data, not from the text of the source: active = GI50 up to about 1.1 µM and inactive = higher.

Columns and labels:
Test in all cases: DTP human tumour cell line panel, 48 h
[1] = tested on: LOX IMVI
[2] = tested on: NCI-H460
[3] = tested on: K562
[4] = tested on: A549
[5] = tested on: UACC-257
[6] = tested on: SW-620
[7] = tested on: RPMI-8226
[8] = tested on: SF-295
[9] = tested on: SN12C
[10] = tested on: UACC-62
[11] = tested on: 786-0
[12] = tested on: SK-OV-3
[13] = tested on: HL-60
[14] = tested on: UO-31
[15] = tested on: SK-MEL-5
[16] = tested on: KM12
[17] = tested on: HT-29
[18] = tested on: NCI-H226

Measured: GI50

O=C1C=C/C(=N\c2ccc3c(c2)C(Br)c2ccccc2-3)O1 (stereo not given)
inactive: [1] 45.6 µM | [2] > 100 µM | [3] 42.8 µM | [4] > 100 µM | [5] > 100 µM | [6] 27.6 µM | [7] 68.2 µM | [8] > 100 µM | [9] 21.5 µM | [10] 61.5 µM | [11] 29 µM | [12] > 100 µM | [13] 10.2 µM | [14] > 100 µM

CCOC(=O)C1C(=O)CC(=O)C2CCCCC21 (stereo not given)
inactive: [1] > 100 µM | [2] > 100 µM | [3] > 100 µM | [4] > 100 µM | [5] > 100 µM | [15] > 100 µM | [6] > 100 µM | [7] > 100 µM | [8] > 100 µM | [9] > 100 µM | [10] > 100 µM | [11] > 100 µM | [12] > 100 µM | [13] > 100 µM | [16] > 100 µM | [14] > 100 µM

NCP(=O)(O)OCC(=O)O
inactive: [1] > 100 µM | [2] > 100 µM | [3] > 100 µM | [4] > 100 µM | [17] > 100 µM | [5] > 100 µM | [15] > 100 µM | [6] > 100 µM | [8] > 100 µM | [9] > 100 µM | [10] > 100 µM | [11] > 100 µM | [12] > 100 µM | [13] > 100 µM | [16] > 100 µM | [14] > 100 µM

CCCC(=O)c1ccc2c(ccc(=O)n2C)c1
inactive: [1] > 100 µM | [2] > 100 µM | [3] > 100 µM | [4] > 100 µM | [17] > 100 µM | [15] 72.9 µM | [6] > 100 µM | [7] > 100 µM | [8] > 100 µM | [9] > 100 µM | [10] 24.3 µM | [18] 31 µM | [11] > 100 µM | [12] > 100 µM | [13] > 100 µM | [16] > 100 µM

O=[N+]([O-])c1cc(/C=N\NS(=O)(=O)c2ccc(Cl)cc2)c(O)c([N+](=O)[O-])c1
inactive: [1] 37.8 µM | [2] 21 µM | [3] 31.1 µM | [4] 37.8 µM | [17] 24.9 µM | [5] 66.5 µM | [15] 27.8 µM | [6] 34.6 µM | [7] 19 µM | [8] 32.9 µM | [9] 25.6 µM | [10] 32.4 µM | [11] 36.1 µM | [12] 31.3 µM | [13] 26.7 µM | [16] 27.5 µM | [14] 71.4 µM

CC(C)(C)C1CCC2c3c([nH]c4ccccc34)C3C(=O)N(c4ccccc4)C(=O)C3C2C1 (stereo not given)
inactive: [1] 3.79 µM | [2] 3.7 µM | [3] 4.36 µM | [4] 10.8 µM | [17] 8.93 µM | [15] > 10 µM | [6] 8.34 µM | [7] 7.78 µM | [8] 4.86 µM | [9] 5.3 µM | [10] 20.9 µM | [18] 5.82 µM | [11] 7.14 µM | [12] 2.15 µM | [13] 12.8 µM | [16] 21.4 µM | [14] 2.62 µM

COC(=O)N/N=c1\cc(C(=O)Nc2ccc(C)c(C)c2)oc2cc(O)ccc12
inactive: [1] > 100 µM | [2] > 100 µM | [3] > 100 µM | [4] > 100 µM | [17] > 100 µM | [5] > 100 µM | [15] > 100 µM | [6] > 100 µM | [8] > 100 µM | [9] > 100 µM | [10] > 100 µM | [18] > 100 µM | [11] > 100 µM | [12] > 100 µM | [13] > 100 µM | [16] > 100 µM | [14] > 100 µM

N/C(=N\O)N/N=C/c1cccs1
inactive: [2] 33.7 µM | [3] 86.9 µM | [4] 23.9 µM | [17] 45.1 µM | [5] > 100 µM | [6] > 100 µM | [8] > 100 µM | [9] 59.8 µM | [10] 15.8 µM | [18] 57.1 µM | [11] > 100 µM | [12] 37.8 µM | [13] 28.1 µM | [16] 49.1 µM | [14] 55.1 µM

O=C(N/C(=C\c1c(O)ccc2ccccc12)c1nc2ccccc2[nH]1)c1ccccc1
inactive: [1] > 100 µM | [2] > 100 µM | [3] > 100 µM | [4] > 100 µM | [17] > 100 µM | [5] > 100 µM | [15] > 100 µM | [6] > 100 µM | [7] > 100 µM | [9] 92.7 µM | [10] > 100 µM | [11] 39.8 µM | [12] 86.3 µM | [16] > 100 µM | [14] 42.6 µM

C[C@@]1(CBr)C[C@@](C)(/C=C/Cl)[C@@H](Cl)C[C@H]1Cl
inactive: [1] 11.5 µM | [3] 4.74 µM | [4] 12.3 µM | [17] 9.04 µM | [5] 11.4 µM | [15] 13.3 µM | [6] 13.9 µM | [8] 13.8 µM | [9] 11.7 µM | [10] 15.5 µM | [18] 12.8 µM | [11] 14 µM | [12] 16 µM | [13] 3.06 µM | [16] 7.83 µM | [14] 15.6 µM

CC(=O)O/N=C(Cl)/C(Cl)=N/OC(C)=O
inactive: [1] > 100 µM | [2] > 100 µM | [3] > 100 µM | [4] > 100 µM | [17] > 100 µM | [5] > 100 µM | [6] > 100 µM | [7] > 100 µM | [8] > 100 µM | [9] > 100 µM | [10] > 100 µM | [18] > 100 µM | [11] > 100 µM | [12] > 100 µM | [13] > 100 µM | [16] > 100 µM | [14] > 100 µM

COc1ccccc1/C=C1\C(=O)N(C(=O)c2ccc(NC(C)=O)cc2)N=C1C
inactive: [1] > 100 µM | [2] > 100 µM | [3] > 100 µM | [4] > 100 µM | [17] > 100 µM | [5] > 100 µM | [15] > 100 µM | [6] > 100 µM | [7] > 100 µM | [8] > 100 µM | [9] > 100 µM | [18] > 100 µM | [11] > 100 µM | [13] > 100 µM | [16] > 100 µM | [14] > 100 µM

CC12CC3CC(C)(C1)CC(N=[N+]=[N-])(C3)C2
inactive: [1] > 100 µM | [2] > 100 µM | [3] > 100 µM | [4] > 100 µM | [17] > 100 µM | [5] > 100 µM | [15] > 100 µM | [6] > 100 µM | [7] > 100 µM | [8] > 100 µM | [9] > 100 µM | [10] > 100 µM | [18] > 100 µM | [11] > 100 µM | [12] > 100 µM | [16] > 100 µM | [14] > 100 µM

CC(C)(C)c1cc(CCCCCCCC2(CCCCCCCc3cc(C(C)(C)C)cc(C(C)(C)C)c3)OC(COCCOCCCCCC#N)C(COCCOCCCCCC#N)O2)cc(C(C)(C)C)c1 (stereo not given)
inactive: [1] > 100 µM | [2] > 100 µM | [3] > 100 µM | [4] > 100 µM | [17] > 100 µM | [5] > 100 µM | [15] > 100 µM | [6] > 100 µM | [8] > 100 µM | [9] > 100 µM | [10] > 100 µM | [18] > 100 µM | [11] > 100 µM | [12] > 100 µM | [13] > 100 µM | [16] > 100 µM | [14] > 100 µM

O=c1oc2cc(O)ccc2c2[nH]c3cc(O)ccc3c12
inactive: [1] 18.5 µM | [2] 33 µM | [3] 45.9 µM | [4] 42.7 µM | [17] 35.1 µM | [5] 35.2 µM | [6] 34 µM | [7] 78 µM | [8] 66.8 µM | [9] 33.3 µM | [10] 15.5 µM | [18] 21.4 µM | [11] 30.8 µM | [12] 22.2 µM | [13] 21.8 µM | [16] 20.9 µM | [14] 26.2 µM

COc1cc(OC)c2c(=O)cc(-c3ccc(OC)c(OC)c3OC)oc2c1
inactive: [1] > 100 µM | [3] > 100 µM | [4] > 100 µM | [17] > 100 µM | [5] > 100 µM | [6] > 100 µM | [7] > 100 µM | [8] 52.2 µM | [9] > 100 µM | [10] > 100 µM | [18] > 100 µM | [11] 38.5 µM | [12] > 100 µM | [13] > 100 µM | [16] > 100 µM

COc1cc(Cn2c3ccccc3c3cc(C)c4c(c32)C=CC(C)(CCC=C(C)C)O4)cc2c1[nH]c1ccccc12 (stereo not given) [CHRESTFOLINE C]
inactive: [1] > 100 µM | [2] > 100 µM | [3] > 100 µM | [4] > 100 µM | [17] > 100 µM | [5] > 100 µM | [15] > 100 µM | [6] > 100 µM | [7] > 100 µM | [8] > 100 µM | [9] > 100 µM | [10] > 100 µM | [11] > 100 µM | [12] > 100 µM | [13] > 100 µM | [16] > 100 µM | [14] > 100 µM
